Tests used:
site IIIQO = target: T1, site IIIQO (Rattus norvegicus, UniProt P00159+P20788); experiment: Mitochondrial ROS/H2O2 production (Amplex Red/HRP) after rotenone, antimycin A, myxothiazol; type: biochemical; settings: AOL 5 to 80 μM
T1 construct: from tissue; host or cells: mitochondria isolated from rat heart
Protocol: Rates of ROS/H2O2 production from heart mitochondria were assessed through the oxidation of the colorless, non-fluorescent indicator Amplex Red in the presence of exogenous horseradish peroxidase (HRP, EC 1.11.1.7, Sigma). H2O2 reacts with Amplex Red in a 1:1 stoichiometry, yielding the fluorescent compound resorufin (excitation: 560 nm; emission: 585 nm) which is stable once formed. Fluorescence was measured continuously with a spectro-fluorometer equipped with temperature control and stirring (SAFAS Xenius, Monaco). Isolated mitochondria (0.1 mg/mL) were incubated in the same experimental buffer than previously, supplemented with 15 μM Amplex Red and 10 μg/mL HRP. Glutamate (5 mM)/malate (2.5 mM) together with succinate (5 mM) were used as complex I and complex II substrates, respectively. Experiments were conducted under non-phosphorylating conditions in the presence of 15 μM atractyloside, i.e., under state IV conditions where mitochondrial membrane is maximal. […]
Rates of ROS/H2O2 production from heart mitochondria were assessed through the oxidation of the colorless, non-fluorescent indicator Amplex Red in the presence of exogenous horseradish peroxidase (HRP, EC 1.11.1.7, Sigma). […] Fluorescence was measured continuously with a spectro-fluorometer equipped with temperature control and stirring (SAFAS Xenius, Monaco). […]

[1] = test system: isolated pancreatic islets from mice; experiment: Glucose-stimulated insulin secretion (GSIS) in isolated pancreatic islets; type: cell-based, mouse; settings: AOL 10 and 20 μM, 1 hour
Protocol: Pancreatic islets were isolated using the collagenase digestion method. Briefly, pancreas was inflated with Hanks solution containing 0.33 mg/mL of collagenase (Sigma-Aldrich), 5.6 mM glucose and 1% bovine serum albumin, pH 7.35, removed and kept at 37° C. for 6-9 minutes. After tissue digestion and exocrine removal by three consecutive washes, the islets were manually collected, under a binocular magnifier. Islets were left recovering from digestion by culturing for 20-24 hours in RPMI-1640 medium containing 11 mM glucose (Invitrogen, CA, USA) and supplemented with 2 mM glutamine, 200 IU/mL penicillin, 200 μg/mL streptomycin and 8% fetal bovine serum stripped with charcoal-dextran (Invitrogen).
For each static GSIS experiment, islets from two mice were first incubated for 2 hours at 37° C. in 3 mL Krebs-bicarbonate buffer solution (in mM): […] and 3 glucose, equilibrated with a mixture of 95% 02:5% C02, pH 7.4. […] Insulin secretion in each well was calculated as ng of insulin per islet and per hour of incubation, and then expressed as percentage of insulin secretion in 11 mM glucose vehicle group, which was considered 100%.

[2] = test system: isolated rat heart mitochondria; experiment: Mitochondrial ATP synthesis (phosphorylation rate, pH electrode); type: biochemical
Protocol: Male Wistar rats (250-325 g; obtained from Janvier Labs, Le Genest-Saint-Isle, France) were killed by stunning and cervical dislocation, and the heart was quickly removed and washed in cold isolation medium containing 100 mM sucrose, 180 mM KCl, 50 mM Tris, 5 mM MgCl2, 10 mM EDTA, and 0.1% (w/v) defatted BSA (pH 7.2).
Isolation of heart mitochondria was performed in a cold chamber. Before homogenization, hearts (about 1.5 g) were minced with scissors and treated for 5 minutes in 5 mL of the same medium supplemented with protease (2 mg of bacterial proteinase type XXIV per mL of isolation buffer) with stirring. The tissue suspension was poured into a 50-mL glass Potter homogenizer, diluted with 20 mL of isolation buffer, then homogenized for 3 minutes using a motorized Teflon pestle. The homogenate was filtered through bolting cloth (Sefar Nitex) to remove debris, and centrifuged at 8,000 g for 10 minutes. The resulting pellet was rinsed with 5 mL of isolation buffer, resuspended in 25 ml of the same buffer, then subjected to low speed centrifugation (400 g) for 8 minutes. […] Protein concentration was determined by the Bradford method (Sigma, kit # B6916) using BSA as standard. […]
ATP synthesis was measured under the same conditions using a high sensitivity pH electrode (Metrohm) as previously described (Gouspillou et al., 2014. Aging Cell. 13(1):39-48).

T1 sequence (P00159 whole entry): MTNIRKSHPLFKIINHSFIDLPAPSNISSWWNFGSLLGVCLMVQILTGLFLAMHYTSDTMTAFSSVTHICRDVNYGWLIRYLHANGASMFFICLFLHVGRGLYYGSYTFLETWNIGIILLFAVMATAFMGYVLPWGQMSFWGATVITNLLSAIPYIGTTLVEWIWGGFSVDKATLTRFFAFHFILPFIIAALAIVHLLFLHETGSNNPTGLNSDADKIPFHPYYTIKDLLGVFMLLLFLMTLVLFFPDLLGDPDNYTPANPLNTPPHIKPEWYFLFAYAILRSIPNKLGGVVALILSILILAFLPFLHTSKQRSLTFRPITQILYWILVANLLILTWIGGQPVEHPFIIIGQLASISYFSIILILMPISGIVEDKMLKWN
T1 sequence (P20788 79-274 limits assumed): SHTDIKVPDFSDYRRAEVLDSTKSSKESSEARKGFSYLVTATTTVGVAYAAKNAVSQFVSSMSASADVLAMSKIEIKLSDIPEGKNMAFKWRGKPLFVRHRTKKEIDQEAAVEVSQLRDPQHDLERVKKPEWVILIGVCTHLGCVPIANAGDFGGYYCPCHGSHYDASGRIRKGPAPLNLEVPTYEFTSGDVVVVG
T1 sequence (P20788 1-78 partner limits assumed): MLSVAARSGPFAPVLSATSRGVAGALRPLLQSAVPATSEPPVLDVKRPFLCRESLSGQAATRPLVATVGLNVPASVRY
T1 sequence (Q68FY0 35-480 partner): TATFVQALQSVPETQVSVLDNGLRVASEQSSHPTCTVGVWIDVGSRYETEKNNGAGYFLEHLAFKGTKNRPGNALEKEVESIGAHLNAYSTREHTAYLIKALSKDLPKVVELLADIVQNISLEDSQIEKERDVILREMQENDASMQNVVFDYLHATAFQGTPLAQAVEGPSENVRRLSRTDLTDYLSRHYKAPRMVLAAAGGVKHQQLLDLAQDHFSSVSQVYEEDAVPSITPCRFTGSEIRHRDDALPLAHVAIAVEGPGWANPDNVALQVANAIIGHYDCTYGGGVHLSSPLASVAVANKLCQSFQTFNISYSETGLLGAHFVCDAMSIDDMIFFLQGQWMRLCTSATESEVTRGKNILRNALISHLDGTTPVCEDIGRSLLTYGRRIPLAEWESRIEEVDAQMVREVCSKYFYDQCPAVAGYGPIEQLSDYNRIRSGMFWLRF
T1 sequence (P32551 15-452 partner): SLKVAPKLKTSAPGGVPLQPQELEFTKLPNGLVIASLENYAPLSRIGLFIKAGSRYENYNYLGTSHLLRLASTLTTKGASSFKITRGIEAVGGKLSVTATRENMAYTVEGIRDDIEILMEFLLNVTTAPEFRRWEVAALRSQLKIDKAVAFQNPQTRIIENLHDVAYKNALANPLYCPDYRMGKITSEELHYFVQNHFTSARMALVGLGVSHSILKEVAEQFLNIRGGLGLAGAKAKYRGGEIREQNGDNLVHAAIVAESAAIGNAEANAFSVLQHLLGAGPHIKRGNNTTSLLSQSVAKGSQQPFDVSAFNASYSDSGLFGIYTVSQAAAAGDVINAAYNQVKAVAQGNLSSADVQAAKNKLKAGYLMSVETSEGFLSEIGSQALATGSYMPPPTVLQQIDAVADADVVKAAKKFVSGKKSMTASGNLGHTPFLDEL

## COc1ccc(-c2cc(=S)ss2)cc1 [AOL, 5-(4-methoxyphenyl)-3H-1,2-dithiole-3-thione]
Site IIIQO
  effect on ROS/H2O2 production under the other conditions: no statistical differences were observed
[1]
  GSIS increase as compared to the 11 mM glucose vehicle group: 65-75%

## Oc1ccc(-c2cc(=S)ss2)cc1 [AOX, 5-(4-hydroxyphenyl)-3H-1,2-dithiole-3-thione]
[2]
  concentration that completely abolishes phosphorylation rate: 60 µM
  concentrations that do not modify ATP synthesis: lower than 20 μM

Source: patent publication US11484529B2, “Desmethylanethole trithione derivatives for the treatment of diseases linked to mitochondrial reactive oxygen species (ROS) production” (OP2 Drugs, priority 2017, dated 2022)
